These results are taken from patent US6905706B2, “Medicinal herbal extract carpediol for treating depression” (Swedish Herbal Institute, priority 2002, dated 2005).

Marks after values point to notes of the source that are not given here.

For data set [1] the following is noted: simultaneous application; cited from earlier work.
In the next data set the test system is Male Wistar rats. Nature of the data set: Behavioral despair "forced swimming" test. Particulars: 30 min pretreatment; for Duration of immobility: mean ± SEM. In kind it is in vivo, rat. An excerpt: Behavioral despair was proposed as a model to test for antidepressant activity by Porsolt et al (25-27). […] This behavior reflects a state of despair which can be reduced by several agents which are therapeutically effective in human depression.
Procedure—The procedure described by Porsolt et al. (25-27) was used with minor modifications described by Chatterjee et al. (28-29). Male Wistar rats weighing 170-200 g were used. They were brought to the laboratory at least one day before the experiment and were housed separately in cages with free access to food and water. Naive rats were individually forced to swim inside a vertical glass cylinder (height: 50 cm; diameter: 25 cm, containing 20 cm of water maintained at 25° C.). […] After 2-3 minutes, activity began to subside and to be interspersed with phases of immobility or floating of increasing length. After 5-6 minutes, immobility reached a plateau where the rats remained immobile for approximately 80% of the time. After 15 minutes in the water, the rats were removed and allowed to dry in a heated enclosure (32° C.) before being returned to their home cages. Total immobility time, i.e., the time of complete cessation of swimming with the head floating just above water level, was quantified 48 hours later after re-exposing them to the water for 5 minutes. They were placed in the cylinder 48 hours later and the total duration of immobility was measured during a 5 minute test. […] An animal was judged to be immobile whenever it remained floating passively in the water in a slightly hunched but upright position, its nose just above the surface. Test samples (Hypericum extracts: HP, HPSE, Jarsin 300, HRFC, Crassulaceae special extracts, Carpediol) and standard drugs (amitriptyline and Imipramine) were administered 3 times immediately after pre-exposure, and 24 and one hour prior to testing (re-exposure) as described in Chatterjee et al., Antidepressant activity of Hypericum perforatum and Hyperforin: the neglected possibility. Pharmacopsychiatry. 31 (Suppl 1):7-15 1998), which is incorporated by reference herein in its entirety.
Evaluation—Duration of immobility was measured in controls and animals treated with various doses of a test drug or standard. Antidepressant drugs, but also stimulants like amphetamine and caffeine, reduced duration of immobility. Dose-responses were evaluated.
Two series of experiments were performed with the following test drugs:
Series A: HP, HPSE, HRFC, CRE, Jarsin, amitriptyline.
Series B: CRE-A, CRE-B, CRE-C, CRE-D, ASFC, imipramine.
They were group-housed, four per cage at ambient temperature of 20±2° and 40-50% relative humidity, with a 12 hour dark/12 hour light cycle (lighting on time 8 a.m.). The animals had free access to pellet chow (Comby) and drinking water.
The extracts were administered once daily for 3 consecutive days. Experiments were performed on day 3, 1 hour after the last drug or vehicle application. Amitriptyline was used as the standard antidepressant, and was administered in a single dose of 3 mg/kg (p.o.) with a pretreatment time of 30 min.
They were administered in a volume of 5 ml/kg (p.o.). The extracts were administered once daily for 3 consecutive days. Experiments were performed on day 3, 1 hour after the last drug or vehicle application. Imipramine-HCl diluted with water to concentration of 6 mg/ml, positive control was used as the standard antidepressant. Imipramine was administered in a single dose of 30 mg/kg (p.o.) with a pretreatment time of 30 minutes. All behavioral studies were performed between 1-3 p.m. and recorded by a video camera. The tapes were evaluated afterwards by an observer who was not informed about the type of treatment each animal had received.
Statistics—Statistical analysis of the duration of immobilization time of rats in swimming test was performed by unpaired two tailed Students t-test with significance 95% confidence interval. […]

Setting [2] is: Series B, 30 mg/kg p.o. single dose.
Where [3] appears, read: Series A, 3 mg/kg p.o. single dose.

Take `CC(C)NCC(O)COc1cccc2ccccc12` (centres unmarked) [propranolol]: the “Effect on the metabolism of theophylline (in words)” value in data set [1] is reported as “inhibit”.

Regarding `CN(C)CCCN1c2ccccc2CCc2ccccc21` [Imipramine], in the data set with Male Wistar rats (setting [2]), the “Percent (duration of immobility vs vehicle)” value was 34.9*** Percent, the “Percent decrease (duration of immobility)” value is 65.1*** Percent and the Duration of immobility was determined as 76.0 ± 21.1 n = 6 Seconds.

On to `CN(C)CCC=C1c2ccccc2CCc2ccccc21` [Amitriptyline], for which, in the data set with Male Wistar rats (setting [3]), the “Percent (duration of immobility vs vehicle)” value was found to be 66.3%; the “Percent decrease (duration of immobility)” value is listed as 43.7%; the Duration of immobility is reported as 117.8 ± 33.32, n = 8 seconds.

Turning to `CN/C(=N/CCSCc1nc[nH]c1C)NC#N` [cimetidine], the “Effect on the metabolism of theophylline (in words)” value in data set [1] was “inhibit”.
